Earlier results as cited in US20160220569A1, “CDK4/6 Inhibitor Dosage Formulations For The Protection Of Hematopoietic Stem And Progenitor Cells During Chemotherapy” (G1 Therapeutics, Inc., priority 2015, published 2016).
Where two headings read alike, the source gives them in different places.

Tests used:
[1] = cited from earlier work
[2] = cited from earlier work; remark: listed apart in the source
[3] = Grade 3/4 neutropenia and leukopenia with palbociclib

Which “diarrhea in clinical trials” value ([1]; abemaciclib, gastrointestinal toxicity) does the source give for CCN1CCN(Cc2ccc(Nc3ncc(F)c(-c4cc(F)c5nc(C)n(C(C)C)c5c4)n3)nc2)CC1 [Abemaciclib] here?
The value was “greater than 50%”.

For CC(=O)c1c(C)c2cnc(Nc3ccc(N4CCNCC4)cn3)nc2n(C2CCCC2)c1=O [palbociclib, 6-acetyl-8-cyclopentyl-5-methyl-2-(5-piperazin-1-yl-pyridin-2-ylammino)-8H-pyrido-[2,3-d]-pyrimidin-7-one], which “AUC (0-10)” value ([2]; 100 mg QD, Day 1) is on record?
Its value is 333 ng·h/mL.

And the Cmax ([2]; 100 mg QD, Day 1)?
Its Cmax is 44 ng/mL.

And the Tmax ([2]; 100 mg QD, Day 1)?
Its Tmax is 4 h.

And the “AUC (0-10)” value ([2]; 100 mg QD, Day 8)?
The value was 433 ng·h/mL.

And the Cmax ([2]; 100 mg QD, Day 8)?
Its Cmax is 58 ng/mL.

What about the Tmax ([2]; 100 mg QD, Day 8) of the same compound?
The Tmax was 4 h.

What about the “AUC (0-10)” value ([2]; 150 mg QD, Day 1) of the same compound?
The value was 622 ng·h/mL.

What about the Cmax ([2]; 150 mg QD, Day 1) of the same compound?
Its Cmax is 78 ng/mL.

What about the Tmax ([2]; 150 mg QD, Day 1) of the same compound?
The Tmax was 6 h.

And the “AUC (0-10)” value ([2]; 150 mg QD, Day 8)?
The value was 1599 ng·h/mL.

And the Cmax ([2]; 150 mg QD, Day 8)?
Its Cmax is 194 ng/mL.

And the Tmax ([2]; 150 mg QD, Day 8)?
Its Tmax is 7 h.

What about the “AUC(0-inf)” value ([2]; 150 mg oral) of the same compound?
The value was 2002 n*hr/ml.

And the CL/F ([2]; 150 mg oral)?
The CL/F was 88.5 L/h.

What about the Cmax ([2]; 150 mg oral) of the same compound?
The Cmax was 78 ng/mL.

What about the T1/2 ([2]; 150 mg oral) of the same compound?
Its T1/2 is 26.7 h.

What about the “AUC (0-10)” value ([2]; 200 mg QD, Day 1) of the same compound?
Its value is 525 ng·h/mL.

What about the Cmax ([2]; 200 mg QD, Day 1) of the same compound?
The Cmax was 81 ng/mL.

What about the Tmax ([2]; 200 mg QD, Day 1) of the same compound?
The Tmax was 5.7 h.

And the “AUC (0-10)” value ([2]; 200 mg QD, Day 8)?
The value was 1395 ng·h/mL.

And the Cmax ([2]; 200 mg QD, Day 8)?
Its Cmax is 174 ng/mL.

And the Tmax ([2]; 200 mg QD, Day 8)?
The Tmax was 4 h.

And the “AUC (0-10)” value ([2]; 225 mg QD, Day 1)?
Its value is 718 ng·h/mL.

What about the Cmax ([2]; 225 mg QD, Day 1) of the same compound?
Its Cmax is 104 ng/mL.

What about the Tmax ([2]; 225 mg QD, Day 1) of the same compound?
The Tmax was 4 h.

And the “AUC (0-10)” value ([2]; 225 mg QD, Day 8)?
Its value is 1491 ng·h/mL.

And the Cmax ([2]; 225 mg QD, Day 8)?
Its Cmax is 186 ng/mL.

And the Tmax ([2]; 225 mg QD, Day 8)?
Its Tmax is 4.5 h.

What about the T1/2 ([2]; palbociclib, literature) of the same compound?
The T1/2 was “roughly 26.7 hours”.

What about the “patients requiring a dose interruption” value [1, 3] of the same compound?
Its value is 71%.

And the “patients requiring a dose reduction” value [1, 3]?
Its value is 35%.

With CN(C)C(=O)c1cc2cnc(Nc3ccc(N4CCNCC4)cn3)nc2n1C1CCCC1 [ribociclib] as the compound, how does the associated adverse effect ([1]; ribociclib administration) read?
Its associated adverse effect is “QT prolongation”.
